Assay results: patent US10377764B2, “Tricyclic heterocyclic compounds as phosphoinositide 3-kinase inhibitors” (Karus Therapeutics Limited, priority 2015, dated 2019)

Assays:
PI3K-p110δ = PI3K-p110δ (Homo sapiens, UniProt O00329); assay: Fold isoform selectivity from Ki determination, non-radiometric ADP-Glo assay (Proqinase); assay type: biochemical; conditions: class I PI3K isoforms
From the text: (§1) Fold isoform selectivity inhibition against class I PI3K isoforms, as confirmed following Ki determination using the non-radiometric ADP-Glo™ assay (Promega, Madison, Wis., USA) at Proqinase GmbH is listed below.

PI3K-p110β = PI3K-p110β (Homo sapiens, UniProt P42338); assay: as above; assay type: biochemical; conditions: class I PI3K isoforms
From the text: as §1

[1] = Rodent pharmacokinetics: oral bioavailability and clearance, plasma; assay type: in vivo, mouse; conditions: for clearance: male, CD1, mouse, iv
Protocol: The following protocol was used to determine oral bioavailability and clearance.
(§2) The results are shown below. • Species=male mouse; • Strain=CD1, • n=3 male mice per time point per route; • Terminal blood sampling at 8 time points (5 min, 10 min, 0.5 hr, 1 hr, 3 hr, 6 hr, 8 hr and, 24 hr); • Collection of plasma, bio-analysis and report of pharmacokinetic parameters.
Formulation: 10% DMSO, 15% Cremophor, 75% Saline
Dosing: 10 mg/kg P.O. and 5 mg/kg I.V.
as §2, with “parameters. • Formulation: 10% DMSO, 90 & saline” for “parameters.”

[2] = IV, 5 mg/kg, male CD1 mouse plasma, free base
[3] = PO, 10 mg/kg, male CD1 mouse plasma, free base

PI3K-p110β, sequence (P42338 whole entry, canonical isoform): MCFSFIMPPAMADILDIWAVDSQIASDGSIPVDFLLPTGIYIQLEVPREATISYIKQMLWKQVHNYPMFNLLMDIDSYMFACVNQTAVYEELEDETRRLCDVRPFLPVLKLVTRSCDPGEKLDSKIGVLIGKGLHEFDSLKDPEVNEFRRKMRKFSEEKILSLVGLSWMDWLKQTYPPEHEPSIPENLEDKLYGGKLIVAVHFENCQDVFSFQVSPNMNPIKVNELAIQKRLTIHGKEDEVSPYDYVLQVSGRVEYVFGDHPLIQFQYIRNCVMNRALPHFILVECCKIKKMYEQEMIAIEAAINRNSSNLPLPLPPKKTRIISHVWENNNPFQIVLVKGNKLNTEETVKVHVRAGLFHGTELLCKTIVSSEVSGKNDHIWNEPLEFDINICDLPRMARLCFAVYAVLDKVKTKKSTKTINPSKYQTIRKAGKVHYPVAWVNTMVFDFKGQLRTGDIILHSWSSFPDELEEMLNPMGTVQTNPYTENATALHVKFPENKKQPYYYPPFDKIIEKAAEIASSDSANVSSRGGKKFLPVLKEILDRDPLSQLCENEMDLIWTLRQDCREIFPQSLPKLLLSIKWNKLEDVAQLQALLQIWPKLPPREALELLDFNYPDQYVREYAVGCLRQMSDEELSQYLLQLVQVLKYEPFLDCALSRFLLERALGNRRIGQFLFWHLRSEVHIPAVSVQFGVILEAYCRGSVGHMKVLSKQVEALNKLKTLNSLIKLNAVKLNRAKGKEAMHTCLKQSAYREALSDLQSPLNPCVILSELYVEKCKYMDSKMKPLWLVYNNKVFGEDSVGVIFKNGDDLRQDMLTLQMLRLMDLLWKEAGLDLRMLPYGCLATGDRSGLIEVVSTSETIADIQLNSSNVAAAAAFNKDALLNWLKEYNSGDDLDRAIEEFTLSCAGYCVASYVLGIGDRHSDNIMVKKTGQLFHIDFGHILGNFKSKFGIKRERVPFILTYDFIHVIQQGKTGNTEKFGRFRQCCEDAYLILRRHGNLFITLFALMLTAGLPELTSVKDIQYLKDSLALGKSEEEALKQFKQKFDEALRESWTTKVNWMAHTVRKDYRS
PI3K-p110β, sequence (P27986 whole entry partner, canonical isoform): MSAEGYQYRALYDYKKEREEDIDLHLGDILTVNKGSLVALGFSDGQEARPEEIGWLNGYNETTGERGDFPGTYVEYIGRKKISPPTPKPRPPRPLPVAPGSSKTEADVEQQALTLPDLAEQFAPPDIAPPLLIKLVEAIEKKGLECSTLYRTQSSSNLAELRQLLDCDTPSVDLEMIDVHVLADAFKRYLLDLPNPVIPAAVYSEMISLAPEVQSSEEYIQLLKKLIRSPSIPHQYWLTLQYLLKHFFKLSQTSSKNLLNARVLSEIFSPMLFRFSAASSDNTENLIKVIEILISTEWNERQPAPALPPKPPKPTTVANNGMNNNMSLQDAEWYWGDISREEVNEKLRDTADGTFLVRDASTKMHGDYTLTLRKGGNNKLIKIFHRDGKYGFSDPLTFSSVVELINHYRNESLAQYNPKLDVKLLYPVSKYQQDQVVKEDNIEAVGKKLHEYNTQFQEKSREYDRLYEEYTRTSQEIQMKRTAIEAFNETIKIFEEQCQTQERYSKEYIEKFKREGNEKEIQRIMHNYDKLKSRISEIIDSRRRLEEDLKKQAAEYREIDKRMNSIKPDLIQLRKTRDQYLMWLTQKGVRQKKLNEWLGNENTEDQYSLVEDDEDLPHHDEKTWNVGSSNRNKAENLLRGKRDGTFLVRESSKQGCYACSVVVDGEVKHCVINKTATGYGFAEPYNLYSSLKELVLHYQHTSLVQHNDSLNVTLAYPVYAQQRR
PI3K-p110δ, sequence (O00329 whole entry, canonical isoform): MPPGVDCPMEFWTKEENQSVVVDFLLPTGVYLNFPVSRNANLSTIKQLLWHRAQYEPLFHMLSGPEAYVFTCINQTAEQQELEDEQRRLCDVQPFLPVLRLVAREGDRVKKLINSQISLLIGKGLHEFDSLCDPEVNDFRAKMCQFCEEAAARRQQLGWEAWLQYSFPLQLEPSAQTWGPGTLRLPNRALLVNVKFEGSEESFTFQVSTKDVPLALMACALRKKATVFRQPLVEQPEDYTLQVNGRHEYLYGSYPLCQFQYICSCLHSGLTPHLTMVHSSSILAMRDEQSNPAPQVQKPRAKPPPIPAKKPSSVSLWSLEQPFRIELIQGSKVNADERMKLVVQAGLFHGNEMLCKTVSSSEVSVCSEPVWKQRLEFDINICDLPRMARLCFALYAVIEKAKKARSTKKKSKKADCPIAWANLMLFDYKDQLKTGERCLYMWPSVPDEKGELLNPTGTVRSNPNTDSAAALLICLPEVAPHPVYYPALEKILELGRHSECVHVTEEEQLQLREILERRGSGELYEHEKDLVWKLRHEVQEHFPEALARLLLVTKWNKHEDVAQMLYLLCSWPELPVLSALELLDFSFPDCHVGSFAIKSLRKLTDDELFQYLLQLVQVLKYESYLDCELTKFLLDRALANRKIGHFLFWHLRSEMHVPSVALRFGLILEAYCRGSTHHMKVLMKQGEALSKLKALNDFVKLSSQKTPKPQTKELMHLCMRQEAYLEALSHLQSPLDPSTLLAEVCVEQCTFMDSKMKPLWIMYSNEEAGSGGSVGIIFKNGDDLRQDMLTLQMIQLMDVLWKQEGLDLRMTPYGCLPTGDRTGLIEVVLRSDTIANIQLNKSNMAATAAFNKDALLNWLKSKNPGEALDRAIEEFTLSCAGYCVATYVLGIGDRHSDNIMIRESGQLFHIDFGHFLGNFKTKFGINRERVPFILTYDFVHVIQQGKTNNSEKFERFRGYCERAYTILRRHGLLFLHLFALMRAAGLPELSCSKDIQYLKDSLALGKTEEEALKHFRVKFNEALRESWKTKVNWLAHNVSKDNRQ
PI3K-p110δ, sequence (P27986 whole entry partner, canonical isoform): as the sequence (P27986 whole entry partner, canonical isoform) above

SMILES | FOLD Ki p110δ/p110α (PI3K-p110δ) | FOLD Ki p110β/p110α (PI3K-p110β) | further results
COC1CN(Cc2cnc3oc4c(N5CCOCC5)nc(-c5cccc6[nH]c(C(F)(F)F)cc56)nc4c3c2)C1 [Example H, 12-[(3-Methoxyazetidin-1-yl)methyl]-6-(morpholin-4-yl)-4-[2-(trifluoromethyl)-1H-indol-4-yl]-8-oxa-3,5,10-triazatricyclo[7.4.0.0^2,7]trideca-1(13),2(7),3,5,9,11-hexaene] | * (* <10x) | * (* <10x) | –
c1cc(-c2nc(N3CCOCC3)c3oc4ncc(CN5CCCCC5)cc4c3n2)c2cc[nH]c2c1 [Example I in WO 2011/021038, reference compound] | – | – | clearance ([1]; plasma, 5 mg/kg, 5 mg/kg I.V., male CD1 mouse, mesylate salt, 10% DMSO, 90 & saline): 66 mL/min/kg
COC1CN(Cc2cnc3oc4c(N5CCOCC5)nc(-c5cc(F)cc6[nH]ccc56)nc4c3c2)C1 [Example I, 4-(6-Fluoro-1H-indol-4-yl)-12-[(3-methoxyazetidin-1-yl)methyl]-6-(morpholin-4-yl)-8-oxa-3,5,10-triazatricyclo[7.4.0.0^2,7]trideca-1(13),2(7),3,5,9,11-hexaene] | *** (*** ≥50x < 100x) | *** (*** ≥50x < 100x) | –
COC1CN(Cc2cnc3sc4c(N5CCOCC5)nc(-c5c(F)ccc6[nH]ccc56)nc4c3c2)C1 [Example K, 4-(5-Fluoro-1H-indol-4-yl)-12-[(3-methoxyazetidin-1-yl)methyl]-6-(morpholin-4-yl)-8-thia-3,5,10-triazatricyclo[7.4.0.0^2,7]trideca-1(13),2(7),3,5,9,11-hexaene] | * (* <10x) | * (* <10x) | –
Fc1ccc2[nH]ccc2c1-c1nc(N2CCOCC2)c2oc3ncc(N4CCOCC4)cc3c2n1 [Example O, 4-(5-Fluoro-1H-indol-4-yl)-6,12-bis(morpholin-4-yl)-8-oxa-3,5,10-triazatricyclo[7.4.0.0^2,7]trideca-1(9),2,4,6,10,12-hexaene] | * (* <10x) | * (* <10x) | –
COC1CN(Cc2cnc3oc4c(N5CCOCC5)nc(-c5cccc6[nH]cc(F)c56)nc4c3c2)C1 [Example Q] | ** (** ≥10x < 50x) | ** (** ≥10x < 50x) | –

Now from value to compound, other results behind:

FOLD Ki p110δ/p110α (PI3K-p110δ) | FOLD Ki p110β/p110α (PI3K-p110β) | SMILES | further results
*** (*** ≥50x < 100x) | ** (** ≥10x < 50x) | Fc1cc(-c2nc(N3CCOCC3)c3oc4ncc(CN5CCC6(CC5)COC6)cc4c3n2)c2cc[nH]c2c1 [Example B, 4-(6-Fluoro-1H-indol-4-yl)-6-(morpholin-4-yl)-12-{2-oxa-7-azaspiro[3.5]nonan-7-ylmethyl}-8-oxa-3,5,10-triazatricyclo[7.4.0.0^2,7]trideca-1(13),2(7),3,5,9,11-hexaene] | –
*** (*** ≥50x < 100x) | *** (*** ≥50x < 100x) | Fc1ccc2[nH]ccc2c1-c1nc(N2CCOCC2)c2oc3ncc(CN4CCC5(CC4)COC5)cc3c2n1 [Example D, 4-(5-Fluoro-1H-indol-4-yl)-6-(morpholin-4-yl)-12-{2-oxa-7-azaspiro[3.5]nonan-7-ylmethyl}-8-oxa-3,5,10-triazatricyclo[7.4.0.0^2,7]trideca-1(13),2(7),3,5,9,11-hexaene] | –
** (** ≥10x < 50x) | ** (** ≥10x < 50x) | COC1CN(Cc2cnc3oc4c(N5CCOCC5)nc(-c5c(F)ccc6[nH]ccc56)nc4c3c2)C1 [Example E, 4-(5-Fluoro-1H-indol-4-yl)-12-[(3-methoxyazetidin-1-yl)methyl]-6-(morpholin-4-yl)-8-oxa-3,5,10-triazatricyclo[7.4.0.0^2,7]trideca-1(13),2(7),3,5,9,11-hexaene] | AUC [1, 2]: 2930 ng·h/mL; AUC(0-inf) [1, 2]: 3010 ng·h/mL; AUClast [1, 2]: 2930 ng·h/mL; Cmax [1, 2]: 3620 ng/mL; Tmax [1, 2]: 4.8 min; Vd [1, 2]: 1.29 L/kg; half-life ([1]; IV, 5 mg/kg, male CD1 mouse plasma, free base, 10% DMSO, 15% Cremophor, 75% Saline): 33 min; AUC [1, 3]: 2780 ng·h/mL; AUC(0-inf) [1, 3]: 2830 ng·h/mL; AUC(0-t) [1, 3]: 2780 ng·h/mL; Cmax [1, 3]: 1290 ng/mL; Tmax [1, 3]: 30 min; half-life ([1]; PO, 10 mg/kg, male CD1 mouse plasma, free base, 10% DMSO, 15% Cremophor, 75% Saline): 80.4 min; clearance ([1]; plasma, 5 mg/kg, male CD1 mouse plasma, free base): 28 mL/min/kg; bioavailability ([1]; plasma, oral, 10 mg/kg P.O. and 5 mg/kg I.V., male CD1 mouse, free base, 10% DMSO, 15% Cremophor, 75% Saline, read-out: Oral bioavailability (F)): 47%
* (* <10x) | * (* <10x) | COC1CN(Cc2cnc3oc4c(N5CCOCC5)nc(-c5cc(C(F)(F)F)cc6[nH]ccc56)nc4c3c2)C1 [Example L, 12-[(3-Methoxyazetidin-1-yl)methyl]-6-(morpholin-4-yl)-4-[6-(trifluoromethyl)-1H-indol-4-yl]-8-oxa-3,5,10-triazatricyclo[7.4.0.0^2,7]trideca-1(13),2(7),3,5,9,11-hexaene] | –
** (** ≥10x < 50x) | * (* <10x) | COC1CN(Cc2cnc3oc4c(N5CCOCC5)nc(-c5ccc(F)c6[nH]ccc56)nc4c3c2)C1 [Example N, 4-(7-Fluoro-1H-indol-4-yl)-12-[(3-methoxyazetidin-1-yl)methyl]-6-(morpholin-4-yl)-8-oxa-3,5,10-triazatricyclo[7.4.0.0^2,7]trideca-1(13),2(7),3,5,9,11-hexaene] | –
** (** ≥10x < 50x) | * (* <10x) | CCN1CCN(Cc2cnc3oc4c(N5CCOCC5)nc(-c5c(F)ccc6[nH]ccc56)nc4c3c2)CC1=O [Example P] | –
